# According to patent US20130130912A1, “AGROCHEMICAL FORMULATION COMPOSITION” (priority 2010, published 2013):
# Assays:
# [1] = solubility of pesticide actives in dialkyl carbonate solvents (CIPAC method MT181); type: physicochemical; conditions: 20 deg C.; for solubility in Bis-(2-ethylhexyl) carbonate solvent: Bis-(2-ethylhexyl) carbonate solvent (comparative)
# Text: All solubility measurements are done according to the CIPAC method MT181.
# [2] = phytotoxic properties of dialkyl carbonates
# Text: A further advantage of the dialkylcarbonates used, is their compatibility with construction materials used in spraying equipment.
Structure (SMILES),solubility in Bis-(2-ethylhexyl) carbonate solvent [1],SOLUBILITY OF PESTICIDE ACTIVES IN di-n-butylcarbonate (DNBC) SOLVENT [1],solubility in di-n-pentyl carbonate solvent [1],SOLUBILITY OF PESTICIDE ACTIVES IN di-n-propylcarbonate (DNPC) SOLVENT [1],phytotoxicity [2]
Fc1ccc([C@]2(Cn3cncn3)O[C@H]2c2ccccc2Cl)cc1 (racemic) [Epoxiconazole],<10 grams/litre,45 grams/litre,20-25 grams/litre,,
CCNc1nc(NC(C)C)nc(SC)n1 [Ametryn],80-100 grams/litre,350 grams/litre,120 grams/litre,>250 grams/litre,
O=C(Nc1ccc(F)cc1F)c1cccnc1Oc1cccc(C(F)(F)F)c1 [Diflufenican],<10 grams/litre,<50 grams/litre,14-20 grams/litre,,
CCc1cccc(C)c1N(C(=O)CCl)C(C)COC (centres unmarked) [Metolachlor],>200 grams/litre,>600 grams/litre,>200 grams/litre,,
CCC(CC)Nc1c([N+](=O)[O-])cc(C)c(C)c1[N+](=O)[O-] [Pendimethalin],80-100 grams/litre,>300 grams/litre,>100 grams/litre,>300 grams/litre,
CC(C)(C)C(O)(CCc1ccc(Cl)cc1)Cn1cncn1 (centres unmarked) [Tebuconazole],<10 grams/litre,140 grams/litre,33-40 grams/litre,>100 grams/litre,
CC(C)(C)C(O)C(Oc1ccc(Cl)cc1)n1cncn1 (centres unmarked) [Triadimenol],<10 grams/litre,45 grams/litre,20-25 grams/litre,,
CCCN(CCC)c1c([N+](=O)[O-])cc(C(F)(F)F)cc1[N+](=O)[O-] [Trifluralin],80-100 grams/litre,>600 grams/litre,>250 grams/litre,>600 grams/litre,
"CCCCOC(=O)OCCCC [di-n-butyl carbonate, di-n-butylcarbonate]",,,,,not to be phytotoxic
